In patent publication US8367687B2, “Pyrazole derivatives” (Novartis AG, priority 2007, dated 2013):
pIC50: −log10 of the molar value. Where two headings read alike, the source gives them in different places.

Assays:
hCDK1/B = hCDK1/B (Homo sapiens, UniProt P06493); assay: hCDK1/B; assay type: biochemical
CDK4 = CDK4 (Homo sapiens, UniProt P11802); assay: CDK4 HTRF; assay type: biochemical
CDK2 cyA = CDK2 cyA (Homo sapiens, UniProt P24941); assay: CDK2 cyA IMAP; assay type: biochemical
p-pRb/S780 = p-pRb/S780 ELISA Cellular Assay (CDK4 ELISA assay); assay type: cell-based; conditions: cells treated for 24 hrs
Procedure: Biological Activity p-pRb/S780 ELISA Cellular Assay
Maxisorp plates (Nunc 442404) are coated with 50 ul of 1 ug/mL total phospholated Retinoblast Protein (pRb) antibody (4H1 Cell Signaling 9309L) diluted in DPBS (Phosphate Buffered Saline) overnight at 4° C. The next day plates are blocked with Superblock in TBST (Pierce 37535) for one hour to overnight—changing block once during that time. Cells are plated at 50-60% confluency in a 96 well plate (Corning 3585) in 100 uL complete media (media containing fetal bovine serum (Gibco 1600-044), 2 mM L-Glutamine (Gibco 25030), and 1% Penicillin/Streptomycin (Gibco 15140-122) and grown overnight in a humidified chamber at 37° C. and 5% CO2. Compounds (in DMSO) are diluted in media to create a 7 point dilution series of compound with concentrations ranging from 110 uM to 0.027 uM. 10 ul of the diluted compounds are added to the cells, with final concentrations on cells ranging from 10 uM to 0.002 uM. Cells are treated for 24 hrs in a humidified chamber at 37° C. and 5% CO2. Following compound incubation, cells are lysed with 40 uL/well lysis buffer (50 mM Tris-HCL pH 7.5 (Invitrogen 15567-027), 120 mM NaCl (Promega V4221), 1 mM EDTA (Gibco 15575-038), 6 mM EGTA (Fisher 02783-100), 1% Nonidet P40 (Fluka R02771). Plates are placed on Titerplate shaker (Labline model 4625) for 5 minutes at 4° C. to lyse cells. After lysis, 10 ul of cell lysate and 50 ul 1×PBS/10% Superblock (Gibco 10010 and Pierce 37535) is added to each well of the precoated and blocked Maxisorp plate and allowed to bind at room temperature for 2 hours on Oribtron Rotator II (Boekel Industries Model 260250). Plates are then washed 3× with 1×TBST (Teknova T9201) using Biotek platewasher equipped with a Biostack. The final wash is not aspirated. The final wash is removed by flicking off and tapping plate on paper towels. ppRbS780 antibody (Cell Signaling 9307L) is diluted 1:1000 in 1×PBS/10% Superblock (Gibco 10010 and Pierce 37535) and 50 ul is added to each well. Plates are then incubated 1 hour on Oribtron Rotator II (Boekel Industries Model 260250). Plates are then washed as previously described. Goat anti-rabbit HRP (Promega W401B) is diluted 1:2500 1×PBS/10% Superblock (Gibco 10010 and Pierce 37535) and 50 ul is added to each well. Plates are then incubated 30 minutes on Oribtron Rotator II. Plates are then washed as previously described. 50 uL Ultra TMB ELISA (Pierce 34028) is then added to each well. Plates are incubated 5-20 minutes until blue color develops. 50 ul 2M Sulfuric acid (Mallinckrodt 2468-46) is then added to each well to stop the reaction. Absorbance at 450 nm for each plate is read on Spectramax Plus (Molecular Devices).

[1] = Table 2, read-out: CDK4 HTRF/ IC50
[2] = Table 2, read-out: CDK2cyA IMAP/ IC50
[3] = Table 2, read-out: p_pRb Cap EL/ IC50_ppRbinh
[4] = Table 1, read-out: CDK2 cyA IMAP
[5] = Table 1, read-out: CDK4 ELISA assay IC50

Chain of hCDK1/B (P06493 whole entry): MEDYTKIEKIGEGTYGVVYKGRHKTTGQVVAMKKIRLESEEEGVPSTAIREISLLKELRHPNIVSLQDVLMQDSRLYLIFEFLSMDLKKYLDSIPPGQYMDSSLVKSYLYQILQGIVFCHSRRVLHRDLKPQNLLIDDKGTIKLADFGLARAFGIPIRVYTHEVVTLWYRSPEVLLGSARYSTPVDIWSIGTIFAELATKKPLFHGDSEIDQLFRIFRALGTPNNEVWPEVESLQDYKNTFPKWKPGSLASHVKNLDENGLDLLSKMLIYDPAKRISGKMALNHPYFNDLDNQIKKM
Chain of hCDK1/B (P14635 whole entry partner): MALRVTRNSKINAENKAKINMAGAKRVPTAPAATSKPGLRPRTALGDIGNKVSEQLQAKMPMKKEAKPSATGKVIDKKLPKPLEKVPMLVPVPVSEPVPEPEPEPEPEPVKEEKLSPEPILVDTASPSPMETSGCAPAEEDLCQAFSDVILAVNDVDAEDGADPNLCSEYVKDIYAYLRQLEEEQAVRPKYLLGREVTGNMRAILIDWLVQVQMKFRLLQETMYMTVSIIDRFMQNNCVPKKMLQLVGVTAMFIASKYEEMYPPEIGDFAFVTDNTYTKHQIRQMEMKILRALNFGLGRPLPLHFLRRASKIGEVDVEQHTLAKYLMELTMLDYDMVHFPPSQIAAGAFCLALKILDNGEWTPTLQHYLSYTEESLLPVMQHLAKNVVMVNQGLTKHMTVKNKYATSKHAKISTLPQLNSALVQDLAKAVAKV
Chain of CDK4 (P11802 whole entry): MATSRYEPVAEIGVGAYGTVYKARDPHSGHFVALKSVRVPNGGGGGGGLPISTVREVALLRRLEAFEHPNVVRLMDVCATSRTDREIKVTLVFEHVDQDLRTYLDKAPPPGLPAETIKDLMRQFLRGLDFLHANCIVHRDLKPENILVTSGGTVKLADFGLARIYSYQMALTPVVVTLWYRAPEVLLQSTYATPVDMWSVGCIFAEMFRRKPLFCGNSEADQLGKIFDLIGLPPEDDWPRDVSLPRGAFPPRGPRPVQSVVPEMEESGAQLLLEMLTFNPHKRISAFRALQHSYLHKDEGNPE
Chain of CDK4 (P24385 whole entry partner): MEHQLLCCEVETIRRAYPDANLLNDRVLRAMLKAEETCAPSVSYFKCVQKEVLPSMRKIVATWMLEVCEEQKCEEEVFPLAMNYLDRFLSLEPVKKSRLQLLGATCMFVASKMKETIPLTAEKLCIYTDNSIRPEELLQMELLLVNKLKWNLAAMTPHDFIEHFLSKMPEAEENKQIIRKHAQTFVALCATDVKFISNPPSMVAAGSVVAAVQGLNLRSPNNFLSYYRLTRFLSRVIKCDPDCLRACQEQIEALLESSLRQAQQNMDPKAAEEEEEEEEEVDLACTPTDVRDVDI

Row | Structure (SMILES) | pIC50 (hCDK1/B; Table 2) | pIC50 (CDK4; [1]) | pIC50 (CDK2 cyA; [2]) | pIC50 (p-pRb/S780; [3]) | pIC50 (hCDK1/B; Table 1) | pIC50 (CDK4; Table 1, read-out: CDK4 HTRF) | pIC50 (CDK2 cyA; [4]) | pIC50 (p-pRb/S780; [5])
1 | CC(C)c1n[nH]c(Br)c1-c1ccnc(NC2CCN(C)CC2)n1 [Example 179] | > 5.30 | > 7.00 | > 5.30 | > 6.00 | – | – | – | –
2 | CC(C)c1n[nH]cc1-c1ccnc(NC2CCC(C)(C)c3ccccc32)n1 (stereo not drawn) [Example 188] | ≤ 4.82 | > 7.00 | ≤ 4.82 | > 5.30 | – | – | – | –
3 | COc1cccc(OC)c1CNc1nccc(-c2c[nH]nc2C(C)C)n1 [Example 156] | ≤ 4.82 | > 4.82 | ≤ 4.82 | > 4.82 | – | – | – | –
4 | CC(C)c1[nH]ncc1-c1ccnc(NCc2ccc3c(c2)OCO3)c1 [Example 35] | – | – | – | – | > 5.30 | > 5.30 | > 5.30 | > 4.82
5 | CC(C)c1[nH]ncc1-c1ccnc(NCc2cccc(C(F)(F)F)c2)c1 [Example 25] | – | – | – | – | > 5.30 | > 5.30 | > 5.30 | > 7.00
6 | CC(C)c1n[nH]cc1-c1ccnc(N[C@@H]2CCc3ccccc32)n1 [Example 176, (R)-Indan-1-yl-[4-(3-isopropyl-1H-pyrazol-4-yl)-pyrimidin-2-yl]-amine] | > 6.30 | > 7.30 | > 6.30 | > 6.00 | – | – | – | –
7 | CC(C)c1n[nH]cc1-c1ccnc(NC2CCN(C)CC2)n1 [Example 139] | > 6.30 | > 7.30 | > 6.00 | > 5.30 | – | – | – | –
8 | Cc1cc(C)n(CCNc2nccc(-c3c[nH]nc3C(C)C)n2)n1 [Example 149] | > 5.00 | > 5.30 | > 4.82 | > 4.82 | – | – | – | –
9 | Cc1ccc(CNc2cc(-c3cn[nH]c3C3CCCC3)ccn2)cc1 [Example 64] | – | – | – | – | > 5.30 | > 5.00 | > 5.30 | > 5.30
10 | CC(C)c1n[nH]cc1-c1ccnc(NC2CCCCC2C)n1 (stereo not drawn) [Example 160] | > 6.30 | > 7.00 | > 6.00 | > 5.30 | – | – | – | –
11 | COc1ccc(CNc2nccc(-c3c[nH]nc3C)n2)cc1 [Example 100] | > 4.82 | > 5.30 | > 4.82 | > 4.82 | – | – | – | –
12 | CC(C)c1n[nH]cc1-c1ccnc(N[C@H]2CCCc3ccccc32)n1 [Example 178] | > 5.00 | > 5.30 | ≤ 4.82 | > 4.82 | – | – | – | –
13 | COc1ccccc1CNc1nccc(-c2c[nH]nc2C)n1 [Example 130] | > 5.00 | > 5.30 | > 4.82 | > 4.82 | – | – | – | –
14 | c1cc(-c2cn[nH]c2C2CCCC2)cc(NCCN2CCCCC2)n1 [Example 61] | – | – | – | – | ≤ 4.82 | > 5.30 | ≤ 4.82 | > 4.82
15 | CC(C)c1n[nH]cc1-c1ccnc(NC2CCNCC2)n1 [Example 141] | > 6.30 | > 7.30 | > 6.00 | > 5.30 | – | – | – | –
16 | CC(C)c1[nH]ncc1-c1ccnc(NCCOc2ccccc2)c1 [Example 21] | – | – | – | – | > 5.00 | > 5.30 | > 5.00 | > 4.82
17 | CC(C)c1[nH]ncc1-c1ccnc(NC2CCC2)c1 [Example 2] | – | – | – | – | > 6.30 | > 6.30 | > 6.30 | > 6.00
18 | c1cc(-c2cn[nH]c2C2CCCC2)cc(NCCCN2CCOCC2)n1 [Example 65] | – | – | – | – | ≤ 4.82 | > 5.30 | ≤ 4.82 | > 4.82
19 | CC(C)c1n[nH]cc1-c1ccnc(N[C@@H]2CCCc3ccccc32)n1 [Example 177] | > 5.30 | > 7.30 | > 6.30 | > 6.00 | – | – | – | –
20 | CC(C)c1[nH]ncc1-c1ccnc(NCCN2CCOCC2)c1 [Example 32] | – | – | – | – | ≤ 4.82 | > 5.30 | > 5.00 | > 4.82
21 | CC(C)c1n[nH]cc1-c1ccnc(NC2CCCCC2)n1 [Example 166] | > 7.30 | > 7.30 | > 7.30 | > 6.00 | – | – | – | –
22 | CC(C)c1n[nH]cc1-c1ccnc(NC2Cc3ccccc3C2)n1 [Example 170] | > 6.30 | > 7.30 | > 6.30 | > 5.30 | – | – | – | –

Continued, values first:

Row | pIC50 (hCDK1/B; Table 2) | pIC50 (CDK4; [1]) | pIC50 (CDK2 cyA; [2]) | pIC50 (p-pRb/S780; [3]) | pIC50 (hCDK1/B; Table 1) | pIC50 (CDK4; Table 1, read-out: CDK4 HTRF) | pIC50 (CDK2 cyA; [4]) | pIC50 (p-pRb/S780; [5]) | Structure (SMILES)
23 | > 4.82 | > 5.30 | > 4.82 | > 4.82 | – | – | – | – | Cc1n[nH]cc1-c1ccnc(NCCCO)n1 [Example 121]
24 | ≤ 4.82 | > 4.82 | ≤ 4.82 | > 4.82 | – | – | – | – | Cc1n[nH]cc1-c1ccnc(NCc2ccccn2)n1 [Example 126]
25 | ≤ 4.82 | > 5.00 | ≤ 4.82 | > 4.82 | – | – | – | – | Cc1n[nH]cc1-c1ccnc(NCCC2CCCN2C)n1 (stereo not drawn) [Example 113]
26 | > 5.30 | > 5.30 | > 5.00 | > 4.82 | – | – | – | – | Cc1n[nH]cc1-c1ccnc(NCCc2c[nH]c3ccccc23)n1 [Example 116]
27 | > 5.30 | > 6.00 | > 5.30 | > 4.82 | – | – | – | – | Cc1n[nH]cc1-c1ccnc(NCc2cc(F)cc(F)c2)n1 [Example 135]
28 | > 5.00 | > 6.00 | > 5.00 | > 4.82 | – | – | – | – | Cc1n[nH]cc1-c1ccnc(NCCc2ccccc2)n1 [Example 91]
29 | > 5.00 | > 5.30 | > 4.82 | > 4.82 | – | – | – | – | Cc1n[nH]cc1-c1ccnc(NCC2CCCCCC2)n1 [Example 105]
30 | ≤ 4.82 | > 5.00 | ≤ 4.82 | > 4.82 | – | – | – | – | Cc1n[nH]cc1-c1ccnc(NCCN2CCOCC2)n1 [Example 99]
31 | > 5.00 | > 5.30 | > 5.00 | > 4.82 | – | – | – | – | Cc1n[nH]cc1-c1ccnc(NCc2ccc(F)cc2)n1 [Example 95]
32 | > 4.82 | > 5.30 | ≤ 4.82 | > 4.82 | – | – | – | – | COCCCNc1nccc(-c2c[nH]nc2C)n1 [Example 108]
33 | > 4.82 | > 4.82 | ≤ 4.82 | > 4.82 | – | – | – | – | Cc1n[nH]cc1-c1ccnc(NCC2CCCO2)n1 (stereo not drawn) [Example 88]
34 | > 5.00 | > 5.30 | > 4.82 | > 4.82 | – | – | – | – | Cc1n[nH]cc1-c1ccnc(NCc2ccccc2)n1 [Example 93]
35 | > 4.82 | > 5.30 | > 4.82 | > 4.82 | – | – | – | – | CC(=O)NCCNc1nccc(-c2c[nH]nc2C)n1 [Example 123]
36 | ≤ 4.82 | > 4.82 | ≤ 4.82 | > 4.82 | – | – | – | – | COCCNc1nccc(-c2c[nH]nc2C)n1 [Example 120]
37 | > 5.00 | > 6.00 | > 5.30 | > 4.82 | – | – | – | – | CCC(C)Nc1nccc(-c2c[nH]nc2C)n1 (stereo not drawn) [Example 110]
38 | ≤ 4.82 | > 5.00 | ≤ 4.82 | > 4.82 | – | – | – | – | Cc1n[nH]cc1-c1ccnc(NCCN(C)C)n1 [Example 94]
39 | > 5.00 | > 5.30 | > 5.00 | > 4.82 | – | – | – | – | Cc1n[nH]cc1-c1ccnc(NC2CC2)n1 [Example 97]
